# Data: patent publication US11344578B2, “Immune cells expressing engineered antigen receptors” (Board of Regents, The University of Texas System, priority 2017, dated 2022)
# Entries after “also recorded” stand apart in the source; their conditions may differ.
# Experiments:
# iC9/CS1/IL15+NK cells = test: Inducible caspase-9 suicide gene test, annexin-V-7AAD staining; format: cell-based; conditions: 10 nM CID AP20187 added to cultures
# Method: Because of concerns over autonomous, uncontrolled NK-cell growth due to autocrine production of IL-15, a suicide gene based on the inducible caspase-9 (IC9) gene was incorporated into the construct. To test the inducible caspase-9 suicide gene that was incorporated into the retroviral vector, 10 nM of CID AP20187 was added to cultures of iC9/CS1/IL15+NK cells. The AP20187 induced apoptosis/necrosis of transgenic cells within 4 hours as assessed by annexin-V-7AAD staining.
# Raji leukemic B cells = test: Luciferase-expressing Raji NSG mouse model, in vivo bioluminescence imaging and survival; conditions: effect of IL-15 in the construct
# Text: To determine the anti-leukemic effect of the CAR-transduced NK cells, they were infused into a “humanized” mouse model of lymphoblastic leukemia, the luciferase-expressing Raji NSG mouse model. To monitor the trafficking of CAR-CD191+CB-NK cells to tumor sites in vivo, the cells were labeled with the FFLuc vector, enabling monitoring by bioluminescence imaging. Engrafted mice received […] Raji leukemic B cells (2×10^6) injected intravenously and labeled with the RLuc vector to monitor tumor growth. Six to 10 days after tumor engraftment, mice were infused intravenously with 2×10^7 expanded CB-NK cells that were unmodified or CD19-CD28-zeta-2A-IL15 CB-NK cells labeled with FFLuc. All imaging was performed once a week for 3 weeks. Four groups of animals (n=10 per group) were studied, and the spleens, blood and lymph nodes of the mice were collected after they were euthanized.
# glucocorticoid receptor = test: PCR based screening of glucocorticoid receptor knockout in hematopoietic cells; format: cell-based; conditions: T cells and NK cells; CRISPR-CAS9; FIG. 3
# Text: To produce steroid-resistant immune cells, the CRISPR-CAS9 system was used to knockout glucocorticoid receptor in hematopoietic cells using gRNA SEQ ID NOs:1-2.
# TGFβ-RII = test: CRISPR/CAS9 knockout of TGFβ-RII in CAR NK cells; format: cell-based; conditions: Cas9 plus gRNA targeting Exon 3; FIG. 6A
# Method: Next, CRISPR-CAS9 was used to knockout TGFβ in CAR NK cells to render CAR NK cells resistant to the immunosuppressive effect of exogenous TGFβ. […] Wild type and TGF-β-RII knockout NK cells were treated with 10 ng/ml of recombinant TGF-β for 48 hrs and their response to K562 targets was assessed. […] TGFβ-RII knockout by CRISPR/CAS9 technology was also found to abrogate downstream Smad-2/3 phosphorylation in response to 10n g/ml of recombinant TGF-β compared to NK cells treated with CAS9 alone (FIG. 6C). Thus, CRISPR-CAS9-mediated knockout of TGFβ-RII renders NK cells resistant to TGFβ.
molecule,measurement,setting,value
CC[C@H](C(=O)N1CCCC[C@H]1C(=O)O[C@H](CCc1ccc(OC)c(OC)c1)c1cccc(OCC(=O)NCC(CNC(=O)COc2cccc([C@@H](CCc3ccc(OC)c(OC)c3)OC(=O)[C@@H]3CCCCN3C(=O)[C@@H](CC)c3cc(OC)c(OC)c(OC)c3)c2)CN(C)C)c1)c1cc(OC)c(OC)c(OC)c1 [AP20187],time to apoptosis/necrosis of transgenic cells,iC9/CS1/IL15+NK cells,≤ 4 h
IL-15: interleukin-15 co-expressed from the CAR construct in NK cells,NK-CAR mediated killing of tumor,Raji leukemic B cells; FIG. 2A,enhances; also recorded: increase
same,survival,Raji leukemic B cells; FIG. 2B,prolong survival
"gRNA SEQ ID NOs:1-2: guide RNAs Ex3 NR3C1 sG1 and sG2 used with CAS9 to knock out glucocorticoid receptor (guide 1 TGCTGTTGAGGAGCTGGA; guide 2 AGCACACCAGGCAGAGTT; used with Cas9, further chemistry not given here)",glucocorticoid receptor knockout by PCR based screening,glucocorticoid receptor,efficient knockdown
"gRNA SEQ ID NOs:3-4: guide RNAs EX3 TGFBR2 sG1 and sG2 used with Cas9 to knock out TGFβ-RII (guide 1 CGGCTGAGGAGCGGAAGA; guide 2 TGGAGGTGAGCAATCCCC; used with Cas9, further chemistry not given here)",knockout of TGFβ-RII,TGFβ-RII,Successful knockout
